From paper PMC11434850, “Biosynthesis of Piceatannol from Resveratrol in Grapevine Can Be Mediated by Cresolase-Dependent Ortho-Hydroxylation Activity of Polyphenol Oxidase” (Plants, 2024)

System: T1, polyphenol oxidase (PPO), cresolase activity; most likely isoform XP_010647098.3
T1 construct: pooled fractions A7 and A8; immunoreactive bands 40, 52 and faint 70 kDa; proteolytic processing possible
Test: Michaelis-Menten / double reciprocal plot; piceatannol formation by LC-MS MRM
Type: biochemical, Vitis vinifera
Details: o-hydroxylation (cresolase) to piceatannol; O2, 1 mM ascorbate, 0.1 M potassium phosphate pH 7.5, room temperature, 90 min, 5 to 200 µM substrate; partially purified, mixture of A7 and A8 fractions

Q: Which Km does the source give for Oc1ccc(/C=C/c2cc(O)cc(O)c2)cc1 [trans-resveratrol, 3,4′,5-trihydroxy-trans-stilbene] here?
A: Its Km is 118 ± 49.8 µM.
